Data from publication PMC5652037 (EBioMedicine, 2017).

Target: γ-secretase (catalytic subunit presenilin 1, PS1) (Cricetulus griseus, UniProt G3HNF2)
Test: Aβ[…] secretion
Type: cell-based

IC50: 46.7 nM
Compound: CC(C)[C@H](O)C(=O)N[C@@H](C)C(=O)N[C@@H]1C(=O)N(C)CCc2ccccc21 [semagacestat]
